Data as given in patent US20190246658A1, “METHODS OF HANDLING PAPAYA” (AGROFRESH INC., priority 2013, published 2019).

Tests used:
Papayas ‘Golden’ [1] = assay: Example 1: papaya skin color rating; format: in vivo; conditions: for Skin color ratings: 100 ppb of MCP, scale 1 green to 5 yellow
Experimental: (§1) Papayas ‘Golden’ were harvested in Linhares—Espírito Santo—Brazil. The harvested fruits were packed in MAP Bags and put in cardboard boxes.
(§2) The appropriate weight of papayas was placed in each bag after harvest. Bags were placed in the same cardboard boxes used to export the fruits. Papayas then were cold stored at (11° C.) at the Laboratory.
(§3) The Test Protocol that was used was as follows. 36 MAP bags were packed. Each bag held approximately 3.8 kg (8.4 lb) of papayas. One such bag was packed in each cardboard box. Total weight of papayas in MAP bags was approximately 137 kg. Approximately 91 kg of papayas were placed into cardboard boxes identical to those used for the MAP bags.
(§4) The MAP-packaged papayas were packaged as follows: Nine fruits, approximately 3.8 kg were carefully placed into microperforated bags, and the bags were sealed by twisting the open side of the bag, folding down the twisted end, and placing a rubber band around the twisted and folded end of the bag.
(§5) All papayas were kept at cold temperature (11° C.) during 27 days and after that the fruits (packed in MAP bags or not) were put in room temperature (22° C.) during 8 days.
(§6) One day after harvest, when the papayas had around 25 lbf of average firmness, each treatment set was marked, placed in a hermetical chamber at cold temperature (11° C.). All chambers were of equal size and packed the same way. Treatment was for 12 hours. In the chambers for the 3 “MCP” treatment groups, at the beginning of the treatment period, SmartFresh™ were placed in the chamber. The amount of SmartFresh™ was chosen to achieve the indicated concentration of 1-methylcyclopropene in the atmosphere of the chamber.
(§7) Evaluation for skin color and firmness was as follows. Day “zero” was the day the papayas were removed from the chamber and placed in storage.
(§8) The Papaya Skin Color was rated with the following scale: 1: green; 2: approximately 25%; 3: approximately 50% colored; 4: approximately 75% colored; 5: yellow.

Papayas ‘Golden’ [2] = assay: Example 3: papaya skin color rating, MAP bags with different perforations; format: in vivo; conditions: for Skin color ratings: 100 ppb of MCP, scale 1 green to 5 yellow
Experimental: (§9) Papayas ‘Golden’ were harvested in Linhares—Espírito Santo—Brazil. The fruits were packed in MAP Bags and put in cardboard boxes.
as §2
as §3, with “40” for “36”, “One of” for “One”, “152” for “137”, “8” for “91”
as §4, with “kg,” for “kg”, “MAP-bags,” for “bags,”
(§10) All papayas were kept at cold temperature (11° C.) during 14 days and after that the fruits (packed in MAP bags or not) were put in room temperature (24° C.) during 5 days.
(§11) One day after harvest, when the papayas had around 30 lbf of average firmness, each treatment set was marked and placed in a hermetical chamber at cold temperature (11° C.). All chambers were of equal size and packed the same way. Treatment was for 12 hours.
(§12) In the chambers, SmartFresh™ was placed at the beginning of the treatment period for the 5 “MCP” treatment groups. The amount of SmartFresh™ was chosen to achieve the indicated concentration of 1-methylcyclopropene in the atmosphere of the chamber.
as §7, §8

Papayas ‘Golden’ [3] = assay: Example 1: pulp firmness, external (FTA, 8 mm probe); format: in vivo, papaya; conditions: 100 ppb of MCP
Experimental: as §1, §2, §3, §4, §5, §6, §7
For the Pulp Firmness evaluation two measurements where done, one for External Firmness and another for Internal Firmness. For External Firmness, the papayas had the skin removed with a peeler and the pulp firmness was measured with a Firmness Texture Analyzer (FTA) with a probe of 8 mm. For Internal Firmness, the papayas were cut transversally and a measurement close to the center of the fruit was taken with the FTA.

Papayas ‘Golden’ [4] = assay: Example 3: pulp firmness, external, MAP bags with different perforations; format: in vivo, papaya; conditions: for External Firmness - Difference with Untreated Fruits (Δ) / Pulp Firmness - External: 100 ppb of MCP; for External Firmness - Difference with Untreated Fruits (Δ): 5 Days @ 24° C.
Experimental: as §9, §2
as §3, with “40” for “36”, “One of” for “One”, “152” for “137”, “8” for “91”
as §4, with “kg,” for “kg”, “MAP-bags,” for “bags,”
as §10, §11, §12, §7
For External Firmness, the papayas had the skin removed with a peeler and the pulp firmness was measured with a Firmness Texture Analyzer (FTA) with a probe of 8 mm.

[5] = MAP bag, 27 days at 11° C. then 0 days @ 22° C.
[6] = MAP bag, 27 days at 11° C. then 4 days @ 22° C.
[7] = MAP bag, 27 days at 11° C. then 8 days @ 22° C.
[8] = No Bag, 27 days at 11° C. then 0 days @ 22° C.
[9] = No Bag, 27 days at 11° C. then 4 days @ 22° C.
[10] = No Bag, 27 days at 11° C. then 8 days @ 22° C.
[11] = 24 Perf. MAP bag, 14 days at 11° C. then 3 days @ 24° C.
[12] = 24 Perf. MAP bag, 14 days at 11° C. then 5 days @ 24° C.
[13] = 48 Perf. MAP bag, 14 days at 11° C. then 3 days @ 24° C.
[14] = 48 Perf. MAP bag, 14 days at 11° C. then 5 days @ 24° C.
[15] = 90 Perf. MAP bag, 14 days at 11° C. then 3 days @ 24° C.
[16] = 90 Perf. MAP bag, 14 days at 11° C. then 5 days @ 24° C.
[17] = 180 Perf. MAP bag, 14 days at 11° C. then 3 days @ 24° C.
[18] = 180 Perf. MAP bag, 14 days at 11° C. then 5 days @ 24° C.
[19] = No Bag, 14 days at 11° C. then 3 days @ 24° C.
[20] = No Bag, 14 days at 11° C. then 5 days @ 24° C.

CC1=CC1 [MCP, 1-methylcyclopropene]
papayas color, in words (Papayas ‘Golden’ [1]; 1-MCP alone (no MAP)): did not hold the papayas color | Skin color ratings (Papayas ‘Golden’ [1]; [5]): 2.14 | Skin color ratings (Papayas ‘Golden’ [1]; [6]): 2.74 | Skin color ratings (Papayas ‘Golden’ [1]; [7]): 3.46 | Skin color ratings (Papayas ‘Golden’ [1]; [8]): 1.70 | Skin color ratings (Papayas ‘Golden’ [1]; [9]): 4.28 | Skin color ratings (Papayas ‘Golden’ [1]; [10]): 4.44 | papayas color, in words (Papayas ‘Golden’ [2]; 1-MCP alone (no MAP)): did not hold the papayas color | Skin color ratings (Papayas ‘Golden’ [2]; 24 Perf. MAP bag, 14 days at 11° C. then 0 days @ 24° C.): 1.60 | Skin color ratings (Papayas ‘Golden’ [2]; [11]): 2.04 | Skin color ratings (Papayas ‘Golden’ [2]; [12]): 3.75 | Skin color ratings (Papayas ‘Golden’ [2]; 48 Perf. MAP bag, 14 days at 11° C. then 0 days @ 24° C.): 1.96 | Skin color ratings (Papayas ‘Golden’ [2]; [13]): 3.02 | Skin color ratings (Papayas ‘Golden’ [2]; [14]): 4.52 | Skin color ratings (Papayas ‘Golden’ [2]; 90 Perf. MAP bag, 14 days at 11° C. then 0 days @ 24° C.): 1.71 | Skin color ratings (Papayas ‘Golden’ [2]; [15]): 3.18 | Skin color ratings (Papayas ‘Golden’ [2]; [16]): 4.36 | Skin color ratings (Papayas ‘Golden’ [2]; 180 Perf. MAP bag, 14 days at 11° C. then 0 days @ 24° C.): 1.73 | Skin color ratings (Papayas ‘Golden’ [2]; [17]): 4.13 | Skin color ratings (Papayas ‘Golden’ [2]; [18]): 4.84 | Skin color ratings (Papayas ‘Golden’ [2]; No Bag, 14 days at 11° C. then 0 days @ 24° C.): 1.82 | Skin color ratings (Papayas ‘Golden’ [2]; [19]): 4.11 | Skin color ratings (Papayas ‘Golden’ [2]; [20]): 4.96 | skin coloring delay and external pulp firmness retention, in words (Papayas ‘Golden’ [2]; combination of 1-MCP and MAP bag versus any treatment alone): synergistic effect | Pulp Firmness - External (Papayas ‘Golden’ [3]; [5]): 17.1 lbf | Pulp Firmness - External (Papayas ‘Golden’ [3]; [6]): 17.0 lbf | Pulp Firmness - External (Papayas ‘Golden’ [3]; [7]): 6.2 lbf | Pulp Firmness - External (Papayas ‘Golden’ [3]; [8]): 25.0 lbf | Pulp Firmness - External (Papayas ‘Golden’ [3]; [9]): 23.4 lbf | Pulp Firmness - External (Papayas ‘Golden’ [3]; [10]): 7.8 lbf | external firmness during shelf-life, in words (Papayas ‘Golden’ [4]; 1-MCP alone (no MAP)): not high enough external firmness | External Firmness - Difference with Untreated Fruits (Δ) (Papayas ‘Golden’ [4]; 24 Perf. MAP bag): 2.59 lbf | Pulp Firmness - External (Papayas ‘Golden’ [4]; [11]): 5.23 lbf | Pulp Firmness - External (Papayas ‘Golden’ [4]; [12]): 4.12 lbf | External Firmness - Difference with Untreated Fruits (Δ) (Papayas ‘Golden’ [4]; 48 Perf. MAP bag): 0.89 lbf | Pulp Firmness - External (Papayas ‘Golden’ [4]; [13]): 3.68 lbf | Pulp Firmness - External (Papayas ‘Golden’ [4]; [14]): 2.42 lbf | External Firmness - Difference with Untreated Fruits (Δ) (Papayas ‘Golden’ [4]; 90 Perf. MAP bag): 1.75 lbf | Pulp Firmness - External (Papayas ‘Golden’ [4]; [15]): 3.94 lbf | Pulp Firmness - External (Papayas ‘Golden’ [4]; [16]): 3.28 lbf | External Firmness - Difference with Untreated Fruits (Δ) (Papayas ‘Golden’ [4]; 180 Perf. MAP bag): 1.27 lbf | Pulp Firmness - External (Papayas ‘Golden’ [4]; [17]): 3.64 lbf | Pulp Firmness - External (Papayas ‘Golden’ [4]; [18]): 2.80 lbf | External Firmness - Difference with Untreated Fruits (Δ) (Papayas ‘Golden’ [4]; No Bag): 1.09 lbf | Pulp Firmness - External (Papayas ‘Golden’ [4]; [19]): 6.23 lbf | Pulp Firmness - External (Papayas ‘Golden’ [4]; [20]): 2.62 lbf
